Data published in patent US9820997B2, “Pharmaceutical composition for treating disease associated with demyelination of neurons and method of using the pharmaceutical composition” (Samsung Electronics Co., Ltd., priority 2014, dated 2017).

Legend:
PMP22 = PMP22 protein amount in PMP22-overexpressing SH-SY5Y cells by Western blot; type: cell-based, human; conditions: for amount of the PMP22 protein compared to negative control and positive control (AA): FIGS. 5A/5B
Description: (§1) SH-SY5Y cells were inoculated at a concentration of 10^5 cells/ml in each well of a 12-well plate including 2 ml of a DMEM medium containing 10% FBS, 100 units/ml of penicillin, and 100 units/ml of streptomycin and incubated until the cell density was about 60% to about 65% in a 5% CO2 incubator at 37°. Then, dapsone (4,4′-diaminodiphenylsulfone, DDS) (available from Sigma), MADDS (available from Sigma), SSZ (available from Sigma), and SCM (available from Sigma) were respectively added to the wells at various concentrations and incubated for 24 hours under the same conditions. Vitamin C (ascorbic acid, AA) (available from Sigma) was used as the positive control group. Vitamin C is known as having an effect of treating peripheral neuropathy by using a cAMP modulator. SH-SY5Y cells are a human-derived cell line used in scientific research. The original cell line, SK-N-SH from which SH-SY5Y cells were subcloned, was isolated from a bone marrow biopsy taken from a person with neuroblastoma. SH-SY5Y cells are often used as in vitro models of neuronal function and differentiation. The SH-SY5Y cells used herein have been modified to consistently overexpress the human PMP22 gene by lentiviral mediated integration of PMP22 into a chromosome.
After removing 2 ml of the culture medium, the SH-SY5Y cells were washed with phosphate buffered saline (PBS), and a lysis solution, 0.5% Triton X-100, in PBS was added thereto. Then, cells were collected using a scraper, left in ice for 30 minutes, and then, the cells were disrupted. Using a bicinchoninic acid (BCA) protein assay, the amount of protein in each sample was normalized to 1 ug/ul. SDS-PAGE (Invitrogen) was performed on the sample, and then Western blotting was performed with rabbit anti-PMP22 (Novus biological) and rabbit anti-actin (Sigma) primary antibodies, and an anti-rabbit secondary antibody.

Zebrafish (Danio rerio) = assay: Remyelination in MTZ-demyelinated genetically engineered zebrafish, confocal fluorescence; type: in vivo; conditions: demyelinated central and peripheral nervous system; 10 uM
[1] = tested on: Tr-J mice (CMT mouse model); assay: Rotarod test in mice; type: in vivo; conditions: 50 mg/kg per day orally for 2 months
[2] = tested on: Tr-J mice (CMT mouse model); assay: Sciatic nerve morphology by toluidine blue staining and g-ratio; type: in vivo; conditions: 50 mg/kg, 2 months
Source text: In this example, the effect of sulfasalzine on the CMT was investigated using Trembler-J (Tr-J) mice. The Tr-J mouse has a missense mutation in the murine peripheral myelin protein-22 gene (Pmp22). Pmp22 mutations are believed to cause the neuropathies of Charcot-Marie-tooth disease in humans (Nature 356, 241-244 (19 Mar. 1992); doi:10.1038/356241a0). Two month old heterozygous Tr^J mice in the C57BL/6J background were obtained from Jackson Laboratories (Bar Harbor, Me.). Matings between Tr-J heterozygous females and males in the C57BL/6 genetic background were implemented to generate Tr-J heterozygous and wild-type controls.
Sulfasalazine was obtained from Sigma-Aldrich, St. Louis. Sulfasalazine (50 mg/kg daily) was administered orally to female mice (n=4-5 per group) via sulfasalazine-containing drinking water. Before sulfasalazine oral intervention, weight and daily water intake of the mice was measured to determine the dose of sulfasalazine. Each Tr-J and WT mice were administered sulfasalazine drinking water for 2 months (50 mg/kg daily).
After 2 months oral intervention, sciatic nerves were harvested from mice (WT+/−50 mg/kg sulfasalazine and Trembler J+/−50 mg/kg sulfasalazine). Nerves were fixed in 2% (w/v) glutaraldehyde in 0.1 M phosphate buffer (pH 7.4) for 4 h, followed by washing with 0.1 M phosphate buffer. […] Sample sections were evaluated using light microscopy.

[3] = tested on: Tr-J mice (CMT mouse model); assay: Twitch/tetanus isometric force of soleus muscle; type: in vivo; conditions: 50 mg/kg, 2 months, vs placebo-treated mice, FIG. 11
PMP22 mRNA = PMP22 mRNA expression in SH-SY5Y cells by RT-PCR; type: cell-based, human; conditions: according to DDS concentration; FIG. 2
Description: as §1, with “SH-SY5Y cells are often used as in vitro models of neuronal function and differentiation. The SH-SY5Y cells used herein have been modified to consistently overexpress the human PMP22 gene by lentiviral mediated integration of PMP22 into a chromosome.” left out
Also, RNA from treated and untreated SH-SY5Y cells was extracted by with Trizol (Invitrogen). PM22 gene expression was analyzed by using a one-step RT-PCR kit (Qiagen), whereby the extracted RNA was mixed with a PMP22 gene specific primer set of SEQ ID NOS: 1 and 2, and a real time-PCR (RT-PCR) was performed to confirm the degree of mRNA expression.

In the case of `CC(=O)Nc1ccc(S(=O)(=O)c2ccc(N)cc2)cc1` [MADDS, mono N-acetyldapsone], the “amount of the PMP22 protein compared to negative control and positive control (AA)” value (PMP22) is reported as “significantly decreased” and the “effect on the promotion of remyelination” value (Zebrafish (Danio rerio)) is reported as “confirmed”.
With `CC(=O)NS(=O)(=O)c1ccc(N)cc1` [SCM, N-[(4-aminophenyl)sulfonyl]acetamide] the “amount of the PMP22 protein compared to the control group” value (PMP22; vs DMSO control, FIGS. 4A/4B) was “decreased” and the “effect on the promotion of remyelination” value (Zebrafish (Danio rerio)) was “confirmed”.
For `O=C(O)c1cc(/N=N/c2ccc(S(=O)(=O)Nc3ccccn3)cc2)ccc1O` [SSZ], the “effect on the promotion of remyelination” value (Zebrafish (Danio rerio)) was “confirmed”, the time on rod ([1]; Tr-J mice, vs placebo-treated Tr-J mice) was “significantly increased” and the time on rod ([1]; WT mice, vs placebo-treated WT mice) was “decreased”. For the same compound, the “g-ratio of sciatic nerve” value ([2]; Tr-J mice, vs vehicle treated Tr-J mice, FIG. 10C) was “significantly lower”, the “number of myelinated axons in sciatic nerve” value ([2]; Tr-J mouse, vs vehicle-treated Tr-J mouse, FIG. 10A) was “significantly increased” and the “tetanus contraction in Soleus tendon” value [3] was “significantly increased”. The “twitch contraction in Soleus tendon” value [3] was “significantly increased”.
With `Nc1ccc(S(=O)(=O)c2ccc(N)cc2)cc1` [DDS, 4,4′-diaminodiphenylsulfone] the “amount of the PMP22 protein compared to negative control and positive control (AA)” value (PMP22) was “significantly decreased”, the “amount of PMP22 protein” value (PMP22; as the concentration of DDS increases, 24 hours, n=4, FIGS. 1A/1B) was “decreased” and the “expression of PM22 mRNA” value (PMP22 mRNA) was “did not show a significant difference”. The “effect on the promotion of remyelination” value (Zebrafish (Danio rerio)) was “confirmed”.
